Test results published in patent publication US8399502B2, “Analogs of indole-3-carbinol and their use as agents against infection” (priority 2008, dated 2013).
Values after ≈ are worked out from the molar mass of the structure shown.

Legend:
Assay in all cases: microbe, parasite or virus in culture
Format in all cases: cell-based
[1] = tested on: Francisella tularensis (FT; Gram-negative); settings: read-out: MIC FT
[2] = tested on: Bacillus anthracis (BA; Gram-positive); settings: read-out: MIC BA
[3] = tested on: Yersinia pestis (YP; Gram-negative); settings: read-out: MIC YP
[4] = tested on: Brucella abortus (BAB; Gram-negative); settings: read-out: MIC BAB
[5] = tested on: Burkholderia mallei (BM; Gram-negative); settings: read-out: MIC BM
[6] = tested on: Burkholderia pseudomallei (BP; Gram-negative); settings: read-out: MIC BP
[7] = tested on: methicillin-susceptible Staphylococcus aureus (MSSA); settings: read-out: MIC MSSA
[8] = tested on: methicillin-resistant Staphylococcus aureus (MRSA); settings: read-out: MIC MRSA
[9] = tested on: penicillin-susceptible S. pneumoniae (PSSP); settings: Streptococcus pneumoniae, read-out: MIC PSSP
[10] = tested on: penicillin-resistant S. pneumoniae (PRSP); settings: Streptococcus pneumoniae, read-out: MIC PRSP
[11] = tested on: Mycobacteruim tuberculosis H37Rv (H37Rv); settings: Mycobacterium tuberculosis, read-out: MIC against Tubercle bacillus

Row | SMILES | MIC [1] | MIC [2] | MIC [3] | MIC [4] | MIC [5] | MIC [6] | MIC [7] | MIC [8] | MIC [9] | MIC [10] | MIC [11]
1 | Clc1ccc2[nH]c3c(OCCCNCc4ncc[nH]4)c4[nH]c5ccc(Cl)cc5c4cc3c2c1 | 1 µg/mL (≈ 2.09 µM) | 1 µg/mL (≈ 2.09 µM) | 2 µg/mL (≈ 4.18 µM) | 0.5 µg/mL (≈ 1.05 µM) | > 8 µg/mL | > 8 µg/mL | – | – | – | – | –
2 | Nc1nnc(N)n1CCCOc1c2[nH]c3ccc(Cl)cc3c2cc2c1[nH]c1ccc(Cl)cc12 | 1 µg/mL (≈ 2.08 µM) | 1 µg/mL (≈ 2.08 µM) | 4 µg/mL (≈ 8.33 µM) | 1 µg/mL (≈ 2.08 µM) | > 8 µg/mL | > 8 µg/mL | – | – | – | – | –
3 | FC(F)(F)c1c2[nH]c3ccccc3c2cc2c1[nH]c1ccccc12 | 0.5 µg/mL (≈ 1.54 µM) | 1 µg/mL (≈ 3.08 µM) | > 16 µg/mL | 2 µg/mL (≈ 6.17 µM) | > 16 µg/mL | > 16 µg/mL | – | – | – | – | –
4 | Clc1ccc2[nH]c3c(OCCCc4nnn[nH]4)c4[nH]c5ccc(Cl)cc5c4cc3c2c1 | 1 µg/mL (≈ 2.22 µM) | 0.5 µg/mL (≈ 1.11 µM) | > 8 µg/mL | 1 µg/mL (≈ 2.22 µM) | > 8 µg/mL | > 8 µg/mL | – | – | – | – | –
5 | c1ccc2[nH]c(Cc3cc4ccccc4[nH]3)cc2c1 | 4 µg/mL (≈ 16.2 µM) | 16 µg/mL (≈ 65 µM) | – | – | – | – | 16 µg/mL (≈ 65 µM) | 32 µg/mL (≈ 130 µM) | 1 µg/mL (≈ 4.06 µM) | 2 µg/mL (≈ 8.12 µM) | –
6 | COc1c2[nH]c3ccc(F)cc3c2cc2c1[nH]c1ccc(F)cc12 [drawing 194] | 0.5 µg/mL (≈ 1.55 µM) | 1 µg/mL (≈ 3.1 µM) | > 16 µg/mL | 1 µg/mL (≈ 3.1 µM) | > 16 µg/mL | > 16 µg/mL | – | – | – | – | –
7 | Fc1ccc2[nH]c3c(OCCCNC4=NCCN4)c4[nH]c5ccc(F)cc5c4cc3c2c1 [drawing 234] | 2 µg/mL (≈ 4.61 µM) | 1 µg/mL (≈ 2.31 µM) | 8 µg/mL (≈ 18.5 µM) | 2 µg/mL (≈ 4.61 µM) | 8 µg/mL (≈ 18.5 µM) | > 8 µg/mL | – | – | – | – | –
8 | CN(C)CCOc1c2[nH]c3cc(F)ccc3c2cc2c1[nH]c1cc(F)ccc12 | 0.5 µg/mL (≈ 1.32 µM) | 1 µg/mL (≈ 2.64 µM) | > 8 µg/mL | 0.5 µg/mL (≈ 1.32 µM) | > 8 µg/mL | > 8 µg/mL | – | – | – | – | –
9 | Fc1ccc2[nH]c3c(O[C@H]4CCNC4)c4[nH]c5ccc(F)cc5c4cc3c2c1 [drawing 254] | 0.25 µg/mL (≈ 0.662 µM) | 0.25 µg/mL (≈ 0.662 µM) | 1 µg/mL (≈ 2.65 µM) | < 0.25 µg/mL | 2 µg/mL (≈ 5.3 µM) | 4 µg/mL (≈ 10.6 µM) | – | – | – | – | –
10 | Fc1ccc2[nH]c3c(OC4CCCNC4)c4[nH]c5ccc(F)cc5c4cc3c2c1 (centres unmarked) | 1 µg/mL (≈ 2.55 µM) | 0.5 µg/mL (≈ 1.28 µM) | 4 µg/mL (≈ 10.2 µM) | 0.5 µg/mL (≈ 1.28 µM) | 8 µg/mL (≈ 20.4 µM) | > 8 µg/mL | – | – | – | – | –
11 | CC/N=C(/NCCCOc1c2[nH]c3ccc(Cl)cc3c2cc2c1[nH]c1ccc(Cl)cc12)NCCCN(C)C | 1 µg/mL (≈ 1.81 µM) | ≤ 0.25 µg/mL | 1 µg/mL (≈ 1.81 µM) | 1 µg/mL (≈ 1.81 µM) | 4 µg/mL (≈ 7.23 µM) | 4 µg/mL (≈ 7.23 µM) | – | – | – | – | –
12 | Fc1ccc2[nH]c3c(OCCCn4cncn4)c4[nH]c5ccc(F)cc5c4cc3c2c1 [drawing 276] | – | – | – | – | – | – | – | – | – | – | > 10 µg/mL
13 | Fc1ccc2[nH]c3c(OCCCn4cncn4)c4[nH]c5ccc(F)cc5c4cc3c2c1 [drawing 231] | 1 µg/mL (≈ 2.4 µM) | 0.5 µg/mL (≈ 1.2 µM) | > 8 µg/mL | 1 µg/mL (≈ 2.4 µM) | > 8 µg/mL | > 8 µg/mL | – | – | – | – | –
14 | CN(C)CCOc1c2[nH]c3ccc(F)cc3c2cc2c1[nH]c1ccc(F)cc12 [drawing 272] | – | – | – | – | – | – | – | – | – | – | 5 µg/mL (≈ 13.2 µM)
15 | CN(C)CCCc1c2[nH]c3ccc(F)cc3c2cc2c1[nH]c1ccc(F)cc12 | 1 µg/mL (≈ 2.65 µM) | 1 µg/mL (≈ 2.65 µM) | 8 µg/mL (≈ 21.2 µM) | 1 µg/mL (≈ 2.65 µM) | 16 µg/mL (≈ 42.4 µM) | > 16 µg/mL | – | – | – | – | –
16 | Nc1nnn(CCCOc2c3[nH]c4ccc(Cl)cc4c3cc3c2[nH]c2ccc(Cl)cc23)n1 | 1 µg/mL (≈ 2.14 µM) | 0.5 µg/mL (≈ 1.07 µM) | > 8 µg/mL | 1 µg/mL (≈ 2.14 µM) | > 8 µg/mL | > 8 µg/mL | – | – | – | – | –
17 | COc1c2[nH]c3ccc(F)cc3c2cc2c1[nH]c1ccc(F)cc12 [drawing 271] | – | – | – | – | – | – | – | – | – | – | > 10 µg/mL
18 | Fc1ccc2[nH]c3c(OC4CCNC4)c4[nH]c5ccc(F)cc5c4cc3c2c1 (centres unmarked) | 0.5 µg/mL (≈ 1.32 µM) | ≤ 0.25 µg/mL | 1 µg/mL (≈ 2.65 µM) | ≤ 0.25 µg/mL | 2 µg/mL (≈ 5.3 µM) | 4 µg/mL (≈ 10.6 µM) | – | – | – | – | –
19 | CN(C)CCOc1c2[nH]c3ccc(Cl)cc3c2cc2c1[nH]c1ccc(Cl)cc12 | 0.25 µg/mL (≈ 0.606 µM) | 0.5 to 1 µg/mL (≈ 1.21 to 2.43 µM) | 2 µg/mL (≈ 4.85 µM) | 0.5 µg/mL (≈ 1.21 µM) | 8 µg/mL (≈ 19.4 µM) | 16 µg/mL (≈ 38.8 µM) | – | – | – | – | –
20 | Fc1ccc2[nH]c3c(OCCCNC4=NCCN4)c4[nH]c5ccc(F)cc5c4cc3c2c1 [drawing 278] | – | – | – | – | – | – | – | – | – | – | 10 µg/mL (≈ 23.1 µM)
21 | N[C@H]1CC[C@@H](Oc2c3[nH]c4ccc(F)cc4c3cc3c2[nH]c2ccc(F)cc23)CC1 | 1 µg/mL (≈ 2.47 µM) | 0.5 µg/mL (≈ 1.23 µM) | 4 µg/mL (≈ 9.87 µM) | 0.5 µg/mL (≈ 1.23 µM) | > 8 µg/mL | > 8 µg/mL | – | – | – | – | –
22 | N=C(N)NCCCOc1c2[nH]c3ccc(F)cc3c2cc2c1[nH]c1ccc(F)cc12 [drawing 232] | 1 µg/mL (≈ 2.45 µM) | 0.5 µg/mL (≈ 1.23 µM) | 8 µg/mL (≈ 19.6 µM) | 0.25 µg/mL (≈ 0.614 µM) | 2 µg/mL (≈ 4.91 µM) | 4 µg/mL (≈ 9.82 µM) | – | – | – | – | –
23 | Fc1ccc2[nH]c3c(O[C@H]4CCNC4)c4[nH]c5ccc(F)cc5c4cc3c2c1 [drawing 280] | – | – | – | – | – | – | – | – | – | – | 5 µg/mL (≈ 13.2 µM)
